Reference: US9303009B2, “Migrastatins and uses thereof” (Sloan-Kettering Institute for Cancer Research, priority 2011, dated 2016)

Tests used:
H1975 = assay: transwell migration (modified Boyden chamber, serum gradient); assay type: cell-based; settings: Homo sapiens, NCI-H1975, 12 hour migration, mean +/- SEM of three experiments, read-out: IC50, inhibition of transwell migration
Description: Migration assay: Cancer cell chemotaxis was performed towards a serum gradient in a modified Boyden chamber consisting of a cell culture insert (6.4 mm diameter, 8-μm pore polyethylene tetraphtalate membrane, [Becton Dickenson]) seated in each well of a 24-well companion plate (Becton Dickinson). Briefly, cancer cells were grown as subconfluent monolayer cultures then starved for 36 hours in serum-free M5 medium. After detachment and dissociation with 5 mM EDTA, single-cell suspensions were prepared by filtration through a 35 μm mesh cell strainer (Becton Dickinson). Cells were counted and a total of 10^5 cells suspended in serum-free medium were seeded into the upper chamber of an insert, then positioned in a 24-well plate, containing medium with or without 10% serum. […] For quantification, three randomly selected fields on the lower side of the insert were photographed at 4× and 20× magnification using computer-assisted microscopy, and analyzed with CellProfiler2.0 cell image analysis software). The migration in response to the test condition was calculated relative to the DMSO vehicle control. […]
Lung Cancer cell lines chemotaxis was performed in cell culture inserts after serum starvation and an overnight preincubation with an incremental logarithmic scale of drug concentration (ME and CME from 10^−3 to 10^−10M). […] Data are expressed as the mean+/−SEM of three independent experiments. […]

MDA231BrM2a cells = assay: cancer cell extravasation through the blood-brain barrier after intracardiac injection; assay type: in vivo, mice; settings: 20 mg/kg intraperitoneally at days 0, 3 and 5; sacrificed 7 days after inoculation
Description: MDA231BrM2a is a human breast cancer cell line that is metastatic to the brain (Bos et al 2009). These cells stably express a triple fusion protein (thymidinekinase-GFP-luciferase) that allows detection by bioluminesce, and by immunofluorescence with anti-GFP antibodies. Cells (5×10^5 cells) were inoculated into the bloodstream of immunodeficient mice by intracardiac injection. Carboxymethyl-Migraether (cME) was administered (20 mg/kg, intraperitoneally) at days 0, 3 and 5 after injection. Mice were sacrificed 7 days after inoculation. Brains from these mice were serially sectioned (80 μm sections). Anti-GFP immunofluorescence was performed and the number of GFP(+) cells (events) per brain quantified (FIG. 1). The results establish that extravasation of these cancer cells through the blood-brain barrier (BBB) occurs during the first 7 days after inoculation. Therefore, in the experiment of FIG. 1, cME targets cells during the extravasation step.

Q: For `CO[C@H]1/C=C/CCCCCOC/C(C)=C\[C@@H](C)[C@@H]1O` [ME, migrastatin ether], which IC50 (H1975) is on record?
A: The IC50 was 1510 ± 690 nM.

Q: For `CO[C@H]1/C=C/CCCCCOC/C(C)=C\[C@@H](C)[C@@H]1OCC(=O)O` [CME, Carboxymethyl migraether], which IC50 (H1975) is on record?
A: Its IC50 is 510 ± 420 nM.

Q: And the “reduction in the number of events (GFP(+) cells) per brain” value (MDA231BrM2a cells)?
A: Its value is “two-fold reduction”.
